The data set is described as follows: Light exposure testing (color difference after light irradiation). It is filed as physicochemical. The conditions noted are these: for Discoloration / Color difference (ΔE): D65 fluorescent lamp, 3570 Lx, exposure dose 1,200,000 Lx·hr, 25° C., room humidity; for Color difference (ΔE): CIELAB, reflected ray measurement; for light-stability (conclusion from Table 2): light exposure test, 1,200,000 Lx·hr. The procedure: Light exposure test of pirfenidone was carried out under the following condition, using “drug substance” obtained by packing 500 mg of milled pirfenidone drug substance in a heat-sealed transparent SP (Striped Package), “compressed drug substance” obtained by statically compressing 300 mg of milled pirfenidone drug substance, “the plain tablets” obtained in the above Example 1, and “the coated tablets” obtained in the above Example 1. […]
light irradiation apparatus: light stability test apparatus (LTL400-D5) (Nagano Science Equipment Mfg. Co., Ltd.) fluorescent light: D65 fluorescent lamp for color comparing and test temperature and humidity: 25° C., room humidity illumination intensity: 3570 Lx […]
coloring difference measure apparatus: Color analyzer TC-1800MK-II measurement method: reflected ray measurement color specification system: CIELAB measurement condition: second degree visual field

Molecules are shown by their SMILES.

For the compound `Cc1ccc(=O)n(-c2ccccc2)c1` [Drug substance, 5-Methyl-1-phenyl-2-(1H)-pyridone], the Discoloration entry is recorded as “slight” and the “Color difference (ΔE)” value stood at 0.73. The “light-stability (conclusion from Table 2)” value (listed as pirfenidone drug substance) is reported as “remarkable color difference was not observed”.
Consider `Cc1ccc(=O)n(-c2ccccc2)c1` [Compressed drug substance, 5-Methyl-1-phenyl-2-(1H)-pyridone], for which the Discoloration result was “remarkable” and the “Color difference (ΔE)” value is on record as 3.62. In addition, where the note is “listed as pirfenidone compressed drug substance”, the “light-stability (conclusion from Table 2)” value is “have a problem in light-stability”.

The values above are taken from patent US9017722B2, “Pharmaceutical composition containing as an active ingredient 5-methyl-1-phenyl-2-(1H)-pyridone” (Intermune, Inc., priority 2001, dated 2015).
